Results: patent publication US20240287048A1, “SUBSTITUTED ACYL SULFONAMIDES FOR TREATING CANCER” (The Broad Institute, Inc., priority 2020, published 2024)
pIC50: −log10 of the molar value.

How the values were obtained:
KAT6A = target: T1, KAT6A (Homo sapiens, UniProt Q92794); assay: Kat6a activity assay (TR-FRET, acetylation of biotinylated histone H4 peptide); assay type: biochemical; conditions: recombinant human His-tagged Kat6a (amino acids 194-810), 60 mins at 22° C., read-out: KAT6A-DPF/HAT domain IC50 [mol/l] (arithmetic mean)
T1 construct: Recombinant human His-tagged Kat6a protein (amino acids 194-810); His; made in house; host or cells: Baculovirus-infected Sf9 insect cells
T1 sequence (Q92794 194-810): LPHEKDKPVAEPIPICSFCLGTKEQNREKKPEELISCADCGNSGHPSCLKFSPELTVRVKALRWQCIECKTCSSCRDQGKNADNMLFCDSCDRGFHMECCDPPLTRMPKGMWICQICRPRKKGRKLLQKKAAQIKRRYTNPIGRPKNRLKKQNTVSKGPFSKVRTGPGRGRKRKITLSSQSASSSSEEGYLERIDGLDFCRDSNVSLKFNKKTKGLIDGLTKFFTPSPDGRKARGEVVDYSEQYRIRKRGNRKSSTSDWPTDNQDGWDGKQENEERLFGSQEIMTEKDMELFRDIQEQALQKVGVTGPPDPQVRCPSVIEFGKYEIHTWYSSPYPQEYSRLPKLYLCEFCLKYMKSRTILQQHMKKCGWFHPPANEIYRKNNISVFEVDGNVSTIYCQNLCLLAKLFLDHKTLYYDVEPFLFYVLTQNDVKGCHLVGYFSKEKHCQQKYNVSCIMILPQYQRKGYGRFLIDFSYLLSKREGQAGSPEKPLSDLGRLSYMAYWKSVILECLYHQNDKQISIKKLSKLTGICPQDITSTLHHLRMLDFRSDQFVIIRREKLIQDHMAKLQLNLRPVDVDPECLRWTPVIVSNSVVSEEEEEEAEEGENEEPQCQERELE
Description: Kat6a inhibitory activities of the compounds described in the present invention were quantified using a Fluorescence Resonance Energy Transfer (TR-FRET) assay which measures acetylation of a synthetic, biotinylated Histone-H4-derived peptide by the enzyme.
Recombinant human His-tagged Kat6a protein (amino acids 194-810), was purified in-house from Baculovirus-infected insect cells (Sf9). Histone H4 peptide (amino acids 1-24, […]-VLRD-K(Btn)-amide), which was used as substrate, was synthesized by Biosyntan GmbH, Berlin, Germany. Acetyl Coenzyme A was purchased from Sigma-Aldrich (#A-2056).
(§1) Kat6a was incubated for 60 mins at 22° C. in the presence of different concentrations of test substances (0 μM, and within the range 0.01-20 μM) in assay buffer [25 mM Tris/HCl pH 8, 1 mM EGTA, 2.5 mM Glutathion, 0.02% Chicken Albumin, 0.05% Pluronic F127, 25 mM NaCl, 220 nM H4 peptide and 600 nM Acetyl Coenzyme A].
The reaction was stopped by addition of Detection Solution (25 mM HEPES pH 7.5, 0.1% BSA, 22 nM SAXL665 (Cisbio #610SAXLE), 100 μM Anacardic Acid (Enzo #ALX-270-381), 1 nM Anti-Histone H4 (ACETYL K8) Antibody (ABCAM #AB15823) and 0.5 nM Anti-Rabbit IgG Eu (Perkin Elmer #AD0083).
(§2) The fluorescence emission at 620 nm and 665 nm after excitation at 330-350 nm was measured in a TR-FRET measuring instrument, for instance a Rubystar or a Pherastar (both from BMG Lab Technologies, Offenburg, Germany) or a Viewlux (Perkin-Elmer). The ratio of the emission at 665 nm and at […] was used as indicator of the amount of acetylated peptide.
(§3) The resulting data (ratio) were normalized, taking 0% inhibition as the mean value of control measurements where all reagents were included. In this case 50 nl DMSO were used instead of compounds. […] IC50 values were determined by regression analysis based on a 4 parameter equation (minimum, maximum, ICM, Hill; Y=Max+(Min−Max)/(1+(X/ICso) Hill) using the Screener Software (Genedata).

KAT6B = target: T2, KAT6B (Homo sapiens, UniProt Q8WYB5); assay: Kat6b activity assay (TR-FRET, acetylation of biotinylated histone H4 peptide); assay type: biochemical; conditions: recombinant human GST-tagged Kat6b (431-end), 30 mins at 22° C., read-out: KAT6B activity assay IC50 [mol/l] (arithmetic mean)
T2 construct: fused on or other part: N-terminal GST tag
T2 sequence (Q8WYB5 723-2073 limits assumed): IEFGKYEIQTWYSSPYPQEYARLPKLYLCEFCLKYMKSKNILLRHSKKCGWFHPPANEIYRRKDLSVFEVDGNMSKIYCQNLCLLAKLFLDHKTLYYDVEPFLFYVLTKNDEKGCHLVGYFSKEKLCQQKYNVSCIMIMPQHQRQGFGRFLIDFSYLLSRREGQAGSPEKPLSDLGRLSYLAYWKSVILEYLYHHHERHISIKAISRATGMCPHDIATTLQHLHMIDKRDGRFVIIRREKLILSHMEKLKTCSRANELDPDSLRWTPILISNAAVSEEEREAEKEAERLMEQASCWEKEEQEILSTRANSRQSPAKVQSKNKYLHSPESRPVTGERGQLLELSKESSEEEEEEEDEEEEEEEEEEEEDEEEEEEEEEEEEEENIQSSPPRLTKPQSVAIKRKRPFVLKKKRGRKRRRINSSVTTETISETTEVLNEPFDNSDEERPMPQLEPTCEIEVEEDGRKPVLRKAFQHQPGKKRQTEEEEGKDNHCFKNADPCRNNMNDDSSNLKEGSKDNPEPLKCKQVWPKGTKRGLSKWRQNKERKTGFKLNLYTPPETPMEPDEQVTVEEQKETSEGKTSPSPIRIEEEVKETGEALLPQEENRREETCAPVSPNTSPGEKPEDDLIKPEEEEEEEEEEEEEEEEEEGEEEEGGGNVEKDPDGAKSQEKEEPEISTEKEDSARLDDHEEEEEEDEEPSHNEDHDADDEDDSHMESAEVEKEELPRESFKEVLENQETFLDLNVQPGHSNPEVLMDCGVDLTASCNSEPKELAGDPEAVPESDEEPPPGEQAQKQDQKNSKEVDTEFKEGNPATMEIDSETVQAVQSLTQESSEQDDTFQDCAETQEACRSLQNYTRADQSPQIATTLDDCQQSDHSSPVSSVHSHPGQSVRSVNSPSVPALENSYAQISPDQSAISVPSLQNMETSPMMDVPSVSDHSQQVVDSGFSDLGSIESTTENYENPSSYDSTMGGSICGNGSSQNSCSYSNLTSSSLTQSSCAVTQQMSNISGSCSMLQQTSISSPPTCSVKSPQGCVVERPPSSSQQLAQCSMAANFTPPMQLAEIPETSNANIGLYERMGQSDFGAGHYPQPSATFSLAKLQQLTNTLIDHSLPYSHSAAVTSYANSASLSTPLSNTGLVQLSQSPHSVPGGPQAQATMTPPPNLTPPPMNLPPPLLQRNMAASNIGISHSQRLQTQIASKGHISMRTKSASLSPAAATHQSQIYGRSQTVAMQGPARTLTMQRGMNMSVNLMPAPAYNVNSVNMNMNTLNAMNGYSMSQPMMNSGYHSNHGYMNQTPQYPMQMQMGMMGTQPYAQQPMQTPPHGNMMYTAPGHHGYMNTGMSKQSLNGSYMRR
Description: Kat6b inhibitory activities of the compounds described in the present invention were quantified using a Fluorescence Resonance Energy Transfer (TR-FRET) assay which measures acetylation of a synthetic, biotinylated Histone-H4-derived peptide by the enzyme.
Recombinant human GST-tagged Kat6b protein (431-end, N-terminal GST-tag), purified from Baculovirus-infected insect cells (Sf9), was purchased from SignalChem (#K315-381BG). Histone H4 peptide (amino acids 1-24, […]-VLRD-K(Btn)-amide), which was used as substrate, was synthesized by Biosyntan GmbH, Berlin, Germany. Acetyl Coenzyme A was purchased from Sigma-Aldrich (#A-2056).
as §1, with “Kat6b was” for “Kat6a was”, “for 30” for “for 60”, “NaCl, 500” for “NaCl, 220”
The reaction was stopped by addition of Detection Solution (25 mM HEPES pH 7.5, 0.1% BSA, 22 nM SAXL665 (Cisbio #610SAXLE), 100 μM Anacardic Acid (Enzo #ALX-270-381), 1 nM Anti-Histone H4 (ACETYL K8) Antibody (ABCAM #AB15823), 0.5 nM Anti-Rabbit IgG Eu (Perkin Elmer #AD0083).
as §2, §3

[1] = test system: ESR1 transcription in MVLN cells; assay: Repression of ESR1 transcription, MVLN luciferase reporter assay; assay type: cell-based; conditions: Homo sapiens, luciferase signal after 24 h, read-out: MVLN reporter assay, IC50[M] (arithmetic mean)
Description: KAT6A controls transcription of the ESR1 gene in breast cancer cells. Compound treatment that interferes with this mechanism was quantified using MVLN cells. These cells constitutively express the ER and are stably transfected with the luciferase (LUC) reporter gene and the corresponding hormone responsive element derived from the 5′-flanking region of the Xenopus Vitellogenin A2 gene (Pons et al., 1990, Demirpense et al., 1993, Joyeux et al., 1993). The repressive effect on ERα transcription activity of a test chemical is directly related to the luciferase measured in the lysate of treated MVLN cells.
Each sample was prepared as duplicate and rim wells were excluded. For luciferase signal determination 100 μl of a 1:1 mixture of Steadylite plus (Perkin Elmer; 6016759) and assay medium was added after 24 h for 15 minutes and measured in Victor X3 (Perkin Elmer). To exclude any effects caused by cell loss during the treatment, cell density was determined using Alamar Blue (Invitrogen; DAL1100). Prior to the luciferase measurement 10 μl Alamar Blue were added to each well and the plates were incubated for 2 h in the incubator. Then fluorescence was measured with Victor X3 (Perkin Elmer) at 530 nm/590 nm.

MDA-MB-436 cells = assay: Proliferation assay in MDA-MB-436 cells (negative control cell line); assay type: cell-based; conditions: Homo sapiens, 144 h, Alamar Blue, read-out: MDA-MB-436 proliferation assay, EC50[M] (arithmetic mean)
Description: (§4) For compound characterization cell survival assays were routinely run in two cell lines. ZR-75-1 is a breast carcinoma cell line containing a focal KAT6A amplification and high KAT6A protein expression. Proliferation of this cell line is inhibited upon treatment with KAT6A inhibitors. As a negative control cell line MDA-MB-436 were used. These cells carry a […] deletion of the KAT6A gene, have a low KAT6A protein expression and are not growth inhibited upon treatment with KAT6A inhibitors.
(§5) For measurements cell lines were plated at the below indicated concentration per […] in 96-well plates in a humidified incubator at 37° C. and 5% CO2.
(§6) ZR-75-1 (ATCC, CRL-1500; breast carcinoma); 3000 cells per well; culture medium: RPMI 1640 (Biochrom #FG 1215) medium containing 2.5% FBS (Biochrom #S0615). LCLC-97TM1 (DSMZ, ACC 388; large cell lung carcinoma); 6000 cells per well; culture medium: RPMI 1640 (Biochrom #FG 1215) medium containing 2.5% FBS (Biochrom #S0615). MDA-MB-436 (CLS, 300278; breast adenocarcinoma); 3000 cells per well; culture medium: DMEM/Ham's F12 (Biochrom #FG 4815) medium containing 2.5% FBS (Biochrom #S0615).
(§7) Each sample was prepared as triplicate and rim wells were excluded. Plates were incubated at 37° C. and 5% CO2 for 144 h. Cell viability was measured by adding 10 μL of Alamar Blue Reagent (Invitrogen #DAL 1100) and plates were incubated for 2 h at 37° C. and 5% CO2. Fluorescence was measured at 590 nm wavelength with a Tecan Spark or Victor X3 MTP-Reader (PerkinElmer).

ZR-75-1 cells = assay: Proliferation assay in ZR-75-1 cells; assay type: cell-based; conditions: Homo sapiens, 144 h, Alamar Blue, read-out: ZR75-1 proliferation assay, EC50[M] (arithmetic mean)
Description: as §4, §5, §6, §7

LCLC-97TM1 cells = assay: Proliferation assay in LCLC-97TM1 cells; assay type: cell-based; conditions: Homo sapiens, 144 h, Alamar Blue, read-out: LCLC97TM1 proliferation assay, EC50[M] (arithmetic mean)
Experimental: as §5, §6, §7

SMILES | pIC50 (KAT6A) | pIC50 (KAT6B) | IC50 [1] | EC50 (MDA-MB-436 cells) | EC50 (ZR-75-1 cells) | EC50 (LCLC-97TM1 cells)
O=C(NS(=O)(=O)c1ccccc1-c1ccccc1)c1cc2ccc(-c3ccc(F)cc3)cc2o1 [Example 1, N-([1,1′-biphenyl]-2-sulfonyl)-6-(4-fluorophenyl)-1-benzofuran-2-carboxamide] | 5.47 | 5.32 | 1.31e-05 M | – | – | –
Cc1ccc2cc(C(=O)NS(=O)(=O)c3ccccc3-c3ccccc3)oc2c1 [Example 2, N-([1,1′-biphenyl]-2-sulfonyl)-6-methyl-1-benzofuran-2-carboxamide] | 6.05 | 5.65 | 1.11e-05 M | > 2e-05 M | > 2e-05 M | –
Cc1cc(C)c2cc(C(=O)NS(=O)(=O)c3ccccc3-c3ccccc3C)oc2c1 [Example 6, 4,6-Dimethyl-N-(2′-methyl[1,1′-biphenyl]-2-sulfonyl)-1-benzofuran-2-carboxamide] | 6.89 | 6.61 | 5.55e-06 M | > 2e-05 M | > 2e-05 M | –
Cc1ccc(S(=O)(=O)NC(=O)c2cc3c(C)cc(C)cc3o2)c(-c2ccccc2)c1 [Example 7, 4,6-Dimethyl-N-(5-methyl[1,1′-biphenyl]-2-sulfonyl)-1-benzofuran-2-carboxamide] | 7.06 | 6.94 | 4.54e-06 M | > 2e-05 M | > 2e-05 M | –
O=C(NS(=O)(=O)c1ccccc1-c1ccccc1)c1cc2ccc(C(F)F)cc2o1 [Example 17, N-([1,1′-Biphenyl]-2-sulfonyl)-6-(difluoromethyl)-1-benzofuran-2-carboxamide] | 5.89 | 5.59 | – | > 2e-05 M | 6.12e-06 M | –
COCCc1ccc2cc(C(=O)NS(=O)(=O)c3ccccc3-c3ccccc3)oc2c1 [Example 26, N-([1,1′-biphenyl]-2-sulfonyl)-6-(2-methoxyethyl)-1-benzofuran-2-carboxamide] | 5.95 | 5.55 | 1.56e-05 M | – | – | –
CCOc1ccccc1S(=O)(=O)NC(=O)c1cc2c(N(C)C)cc(C3CC3)cc2o1 [Example 45, 6-Cyclopropyl-4-(dimethylamino)-N-(2-ethoxyphenyl)sulfonyl-benzofuran-2-carboxamide] | 7.10 | – | 1.68e-05 M | > 2e-05 M | > 2e-05 M | > 2e-05 M

Continued, in another order:

pIC50 (KAT6A) | pIC50 (KAT6B) | IC50 [1] | EC50 (MDA-MB-436 cells) | SMILES | EC50 (ZR-75-1 cells) | EC50 (LCLC-97TM1 cells)
8.02 | 7.65 | 2.81e-07 M | – | Cc1ccc2cccc(S(=O)(=O)NC(=O)c3cc4c(F)cc(C5CC5)cc4o3)c2n1 [Example 22, 6-Cyclopropyl-4-fluoro-N-(2-methylquinoline-8-sulfonyl)-1-benzofuran-2-carboxamide] | 1.26e-06 M | –
7.85 | 7.72 | 2.47e-07 M | – | O=C(NS(=O)(=O)c1ccccc1OC1CC1)c1cc2c(F)cc(C3CC3)cc2o1 [Example 24, 6-Cyclopropyl-N-[2-(cyclopropyloxy)benzene-1-sulfonyl]-4-fluoro-1-benzofuran-2-carboxamide] | 6.74e-07 M | –
7.89 | – | 6.92e-06 M | > 2e-05 M | Cc1ccc2cccc(S(=O)(=O)NC(=O)c3cc4c(N(C)C)cc(C5CC5)cc4o3)c2n1 [Example 43, 6-Cyclopropyl-4-(dimethylamino)-N-[(2-methyl-8-quinolyl)sulfonyl]benzofuran-2-carboxamide] | 5.64e-06 M | > 2e-05 M
7.28 | – | 1.16e-05 M | > 2e-05 M | CN(C)c1cc(C2CC2)cc2oc(C(=O)NS(=O)(=O)c3ccccc3-c3ccccc3)cc12 [Example 44, 6-Cyclopropyl-4-(dimethylamino)-N-(2-phenylphenyl)sulfonyl-benzofuran-2-carboxamide] | 8.67e-06 M | > 2e-05 M
8.32 | – | 4.65e-06 M | > 2e-05 M | Cc1ccc2cccc(S(=O)(=O)NC(=O)c3cc4c(OC(F)F)cc(C5CC5)cc4o3)c2n1 [Example 47, 6-Cyclopropyl-4-(difluoromethoxy)-N-[(2-methyl-8-quinolyl)sulfonyl]benzofuran-2-carboxamide] | 3.24e-06 M | > 2e-05 M
8.26 | – | 1.95e-06 M | > 2e-05 M | Cc1ccc2cccc(S(=O)(=O)NC(=O)c3cc4c(C(F)(F)F)cc(C5CC5)cc4o3)c2n1 [Example 50, 6-Cyclopropyl-N-[(2-methyl-8-quinolyl)sulfonyl]-4-(trifluoromethyl)benzofuran-2-carboximide] | 1.38e-05 M | > 2e-05 M
8.48 | – | 4.96e-08 M | > 2e-05 M | COc1ccc(C(C)(C)C)cc1S(=O)(=O)NC(=O)c1cc2c(F)cc(C3CC3)cc2o1 [Example 66, N-((5-(tert-butyl)-2-methoxyphenyl)sulfonyl)-6-cyclopropyl-4-fluorobenzofuran-2-carboxamide] | 1.76e-07 M | 2.64e-07 M
